Like-named read-outs stand apart in the source and are kept apart here. Marks after values point to notes of the source that are not given here. Residues, ends and D or L forms follow the SMILES beside them.

The subject of assay [1] is DR1. As to the kind of experiment: DR1.
The subject of assay [2] is DP401. As to the kind of experiment: DP401.
Assay [3] concerns DP402. As to the kind of experiment: DP402.
For assay [4], the system named is T lymphocytes derived from PBMCs from patients chronically infected with HCV. The format is cell-based, human.
The target of assay [5] is HLA-DR7 (DRB1*0701) (Homo sapiens, UniProt P01903+P01911, A100R/A102G/A103Q/D57E/D86V/E43K/F76Y/K127E/L162R/M171V/P40G/Q125H/Q99D/R33Q/R42Y/R54Q/S133A/S66F/T210M/V115G/Y107V/Y59L/Y89S). As to the kind of experiment: biochemical. It counts as binding. The following applies: read-out: binds with good affinity to DR7.
Assay [6] concerns the target T1, HLA-DR1 (DRB1*0101) (Homo sapiens, UniProt P01903+P01911, A100R/D57E/F55L/F60I/F76Y/I96L/L162R/M171V/P40L/Q125E/R42F/V115G/Y59C).
T1 construct: endogenous in cells; host or cells: homozygous EBV-transformed human B lymphocyte lines; immunopurified with antibody L243
As to the kind of experiment: biochemical. It counts as binding. The following applies: for IC50: DRB1*0101.

The target in assay [7] is T2, HLA-DRB5 (DRB5*0101) (Homo sapiens, UniProt P01903+Q30154).
T2 construct: endogenous in cells; host or cells: homozygous EBV-transformed human B lymphocyte lines; immunopurified with antibody L243
As to the kind of experiment: biochemical. The format is binding. Conditions: read-out: binds with good affinity to DRB5.

For assay [8], the target named is T3, HLA-DR15 (DRB1*1501) (Homo sapiens, UniProt P01903+P01911).
T3 construct: endogenous in cells; host or cells: homozygous EBV-transformed human B lymphocyte lines; immunopurified with antibody L243
As to the kind of experiment: biochemical. It counts as binding. The following applies: DRB1*1501; read-out: binds with good affinity to DR15.

Assay [9] deals with DRB4. As to the kind of experiment: DRB4. An excerpt:
Table printed on a drawing sheet, Figure 2
Where the first naming reader finds the target: head: DRB4

The test system of assay [10] is DR4. As to the kind of experiment: DR4.
For assay [11], the target named is T4, HLA-DRB4 (DRB4*0101) (Homo sapiens, UniProt P01903+P13762, G164S).
T4 construct: endogenous in cells; host or cells: homozygous EBV-transformed human B lymphocyte lines; immunopurified with antibody L243
As to the kind of experiment: biochemical. The format is binding.

In assay [12] the test system is DRB3. As to the kind of experiment: DRB3.
In assay [13] the test system is DR15. As to the kind of experiment: DR15.
In assay [14] the test system is DRB5. As to the kind of experiment: DRB5.
In assay [15] the target is HLA-DR11 (DRB1*1101) (Homo sapiens, UniProt P01903+P01911, A100R/A169T/A87E/I96F/K41T/L162R/M171V/P40S/Q125H/Q178H/Q39Y/Q99D/R42S/S66Y/T262R/V115G/W38E). As to the kind of experiment: biochemical. Conditions: read-out: binds with good affinity to DR11. It counts as binding.
Setting [16] is: patient 067, supernatant 48 h, —: not detected.
Where [17] appears, read: patient 078, supernatant 48 h, —: not detected.
The mark [18] stands for this setting: patient 093, supernatant 48 h, —: not detected.
[19] abbreviates: patient 630, supernatant 48 h, —: not detected.
Where [20] appears, read: patient 659, supernatant 48 h, —: not detected.
[21] abbreviates: patient 815, supernatant 48 h, —: not detected.
[22] abbreviates: patient 862, supernatant 48 h, —: not detected.
[23] abbreviates: read-out: binds with good affinity to DR1.
[24] abbreviates: competition with biotinylated tracer HA 306-318, read-out: IC50, binding to HLA-DR1.

HLA-DR11 (DRB1*1101), sequence (P01903 26-254 limits assumed, other chains not shown): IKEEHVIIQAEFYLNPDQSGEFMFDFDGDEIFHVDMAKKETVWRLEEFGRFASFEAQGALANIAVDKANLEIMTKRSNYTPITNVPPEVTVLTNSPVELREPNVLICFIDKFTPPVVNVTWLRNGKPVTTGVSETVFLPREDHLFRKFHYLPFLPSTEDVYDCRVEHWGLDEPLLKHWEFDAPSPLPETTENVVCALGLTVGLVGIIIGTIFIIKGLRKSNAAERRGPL

For `CC[C@H](C)[C@H](NC(=O)CNC(=O)[C@H](CC(C)C)NC(=O)[C@H](C)NC(=O)[C@@H](NC(=O)[C@H](CC(C)C)NC(=O)[C@H](CCCCN)NC(=O)[C@H](C)NC(=O)[C@H](C)N)C(C)C)C(=O)N[C@@H](CC(N)=O)C(=O)N[C@@H](C)C(=O)N[C@H](C(=O)N[C@@H](C)C(=O)N[C@@H](Cc1ccc(O)cc1)C(=O)N[C@@H](Cc1ccc(O)cc1)C(=O)N[C@@H](CCCNC(=N)N)C(=O)NCC(=O)N[C@@H](CC(C)C)C(=O)N[C@@H](CC(=O)O)C(=O)N[C@H](C(=O)N[C@@H](CO)C(=O)N[C@H](C(=O)N[C@H](C(=O)N1CCC[C@H]1C(=O)N[C@H](C(=O)N[C@@H](CO)C(=O)NCC(=O)N[C@@H](CC(=O)O)C(=O)N[C@H](C(=O)O)C(C)C)[C@@H](C)O)[C@@H](C)CC)C(C)C)C(C)C)C(C)C` [24N 1404-1432], the IC50 in assay [1] came to 50 nM; in assay [2], 32700 nM; in [3] it was 7040 nM.

As to tetanus toxin [TT], the IL4 in assay [4] was 24 pg/mL.

As to phytohemagglutinin [PHA], the IFNγ in [4] (setting [16]) is 2447 pg/mL; in assay [4] (setting [17]) it was 2249 pg/mL; in assay [4] (setting [18]) it was 8542 pg/mL; in assay [4] (setting [19]), 474 pg/mL; in assay [4] (setting [20]) it was “— 187 pg/ml”; in assay [4] (setting [21]) it was 1979 pg/mL. Also, the IFNγ in assay [4] (setting [22]) came to 9902 pg/mL. Also, the IL2 in [4] (setting [16]) is 1337 pg/mL; in assay [4] (setting [17]), 207 pg/mL; in [4] (patient 093, assay at 24 h instead of 48 h), 1402* pg/ml; in [4] (patient 342, supernatant 48 h, —: not detected), 125 pg/mL; in [4] (setting [19]) it was 18874 pg/mL; in [4] (setting [20]), 153 — pg/ml. For the same compound, the figures for the IL2 in assay [4] (setting [21]) and in assay [4] (setting [22]) were 1002 pg/mL and 60 pg/mL, respectively. Further, the IL4 in assay [4] (setting [16]) turned out to be 632 pg/mL; in [4] (setting [17]) it was 55 pg/mL; in assay [4] (setting [18]) it was 127 pg/mL; in assay [4] (setting [19]), 251 pg/mL; in assay [4] (setting [20]), 453 pg/mL; in [4] (setting [21]), 5638 pg/mL. Moreover, the IL4 in [4] (setting [22]) is 9 pg/mL. Also, the IL10 in [4] (setting [16]) came to 665 pg/mL; in assay [4] (setting [17]), 207 pg/mL; in assay [4] (setting [18]), 8551 pg/mL; in [4] (setting [19]), 242 pg/mL; in assay [4] (setting [20]), 182 pg/mL; in [4] (setting [21]), 497 pg/mL.

As for `CC[C@H](C)[C@H](NC(=O)[C@@H]1CCCN1C(=O)[C@H](CCCNC(=N)N)NC(=O)[C@@H]1CCCN1C(=O)[C@H](CO)NC(=O)[C@H](CC(C)C)NC(=O)[C@H](CC(C)C)NC(=O)[C@H](CO)NC(=O)CNC(=O)[C@@H](N)CCCNC(=N)N)C(=O)N[C@@H](CO)C(=O)N[C@@H](Cc1ccc(O)cc1)C(=O)N[C@@H](CC(C)C)C(=O)N[C@@H](CCCCN)C(=O)NCC(=O)N[C@@H](CO)C(=O)N[C@@H](CO)C(=O)NCC(=O)NCC(=O)N1CCC[C@H]1C(=O)N[C@@H](CC(C)C)C(=O)N[C@@H](CC(C)C)C(=O)N[C@@H](C)C(=O)N1CCC[C@H]1C(=O)O` [14N 1149-1172] (H-RGSLLSPRPISYLKGSSGGPLLAP-OH; N-terminus and C-terminus assumed), the IC50 is less than 1000 nM in assay [5]; less than 1000 nM in [6] (setting [23]); less than 1000 nM in [7]; 8 nM in assay [1]; less than 1000 nM in assay [8]; 100 nM in assay [9]. The IC50 in assay [10] was 9000 nM; in assay [11] (read-out: binds with good affinity to DRB4), less than 1000 nM; in assay [3] it was greater than 100000 nM.

On to `CC[C@H](C)[C@H](NC(=O)[C@@H](NC(=O)[C@@H]1CCCN1C(=O)CNC(=O)[C@@H](N)CCCCN)C(C)C)C(=O)N[C@@H](CCC(N)=O)C(=O)N[C@@H](CCSC)C(=O)N[C@@H](Cc1ccc(O)cc1)C(=O)N[C@H](C(=O)N[C@@H](CC(N)=O)C(=O)N[C@H](C(=O)N[C@@H](CC(=O)O)C(=O)N[C@@H](CCC(N)=O)C(=O)N[C@@H](CC(=O)O)C(=O)N[C@@H](CC(C)C)C(=O)N[C@H](C(=O)NCC(=O)N[C@@H](Cc1c[nH]c2ccccc12)C(=O)N1CCC[C@H]1C(=O)N[C@@H](C)C(=O)N1CCC[C@H]1C(=O)N[C@@H](CCC(N)=O)C(=O)NCC(=O)N[C@@H](CO)C(=O)N[C@@H](CCCNC(=N)N)C(=O)N[C@@H](CO)C(=O)O)C(C)C)C(C)C)[C@@H](C)O` [12N 1094-1119] (H-KGPVIQMYTNVDQDLVGWPAPQGSRS-OH; N-terminus and C-terminus assumed), for which the IC50 in assay [6] (setting [24]) is greater than 10000 nM; in assay [1], greater than 10000 nM; in [12] it was greater than 10000 nM; in assay [3], 3000 nM; in assay [13], 48 nM. The “affinity for HLA-DR1 (in words)” value in assay [6] (legend of FIG. 4) is on record as “low affinity”.

Turning to `CC[C@H](C)[C@H](NC(=O)[C@H](Cc1ccc(O)cc1)NC(=O)CNC(=O)[C@H](CCSC)NC(=O)[C@H](CC(C)C)NC(=O)[C@H](CC(=O)O)NC(=O)[C@H](C)NC(=O)[C@H](Cc1ccccc1)NC(=O)CNC(=O)[C@H](C)NC(=O)[C@@H](N)[C@@H](C)O)C(=O)N1CCC[C@H]1C(=O)N[C@@H](CC(C)C)C(=O)N[C@H](C(=O)NCC(=O)N[C@@H](C)C(=O)N1CCC[C@H]1C(=O)N[C@@H](CC(C)C)C(=O)NCC(=O)NCC(=O)N[C@@H](C)C(=O)N[C@@H](C)C(=O)N[C@@H](CCCNC(=N)N)C(=O)O)C(C)C` [5C 127-149] (H-TAGFADLMGYIPLVGAPLGGAAR-OH; N-terminus and C-terminus assumed), the IC50 in assay [5] was less than 1000 nM; in [6] (setting [23]) it was less than 1000 nM; in assay [7] it was less than 1000 nM; in assay [1] it was 2 nM; in assay [14], 3 nM; in assay [8], less than 1000 nM. Also, the values for the IC50 in [15] and in assay [12] were less than 1000 nM and greater than 100000 nM, respectively.

In the case of `CC[C@H](C)[C@H](NC(=O)[C@@H](NC(=O)[C@H](CCCNC(=N)N)NC(=O)[C@@H](NC(=O)CNC(=O)[C@H](C)NC(=O)CNC(=O)[C@H](Cc1c[nH]cn1)NC(=O)[C@H](Cc1ccc(O)cc1)NC(=O)[C@@H](NC(=O)[C@@H](NC(=O)[C@H](Cc1c[nH]c2ccccc12)NC(=O)[C@H](C)NC(=O)[C@@H](NC(=O)CN)C(C)C)[C@@H](C)O)C(C)C)[C@@H](C)O)[C@@H](C)O)C(=O)N[C@@H](C)C(=O)N[C@@H](CO)C(=O)N1CCC[C@H]1C(=O)O` [11N 1076-1093] (H-GVAWTVYHGAGTRTIASP-OH; N-terminus and C-terminus assumed), the IC50 in [5] was less than 1000 nM; in assay [6] (setting [23]), less than 1000 nM; in assay [7], less than 1000 nM; in assay [14], 100 nM; in [8] it was less than 1000 nM; in assay [9] it was 60000 nM. The IC50 in [15] is less than 1000 nM; in assay [12] it was 6000 nM.

For the compound `CC[C@H](C)[C@H](NC(=O)[C@H](Cc1c[nH]cn1)NC(=O)[C@@H](NC(=O)[C@H](CC(C)C)NC(=O)CNC(=O)[C@@H](N)[C@@H](C)O)[C@@H](C)O)C(=O)N[C@@H](CC(=O)O)C(=O)N[C@@H](C)C(=O)N[C@@H](Cc1c[nH]cn1)C(=O)N[C@@H](Cc1ccccc1)C(=O)N[C@@H](CC(C)C)C(=O)N[C@@H](CO)C(=O)N[C@@H](CCC(N)=O)C(=O)N[C@H](C(=O)N[C@@H](CCCCN)C(=O)O)[C@@H](C)O` [29N 1563-1577], the IC50 in assay [6] (setting [24]) amounted to 8 nM; in assay [11] (tracer E2/E168, read-out: IC50, binding to HLA-DRB4), 40000 nM.

The record behind these values is patent publication US20060110401A1, “Mixture of peptides from c and ns3 proteins of the hepatitis c virus and applications thereof” (priority 2002, published 2006).
